The values below come from patent US10774064B2 (Cadent Therapeutics, Inc., priority 2016, dated 2020).

This assay addresses T1, small-conductance Ca2+-activated K+ channels (SK channels, subtype 2) (Homo sapiens, UniProt Q9H2S1).
T1 construct: expressed in transfected cells; host or cells: HEK293
Briefly: whole-cell patch-clamp of ionic current through SK2 channels in HEK293 cells (SC100). The format is cell-based. The following applies: whole-cell patch-clamp, HEK293 cells expressing SK2 channels; concentration that increases the basal current by 100%. The method, boiled down:
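SC100, the concentration doubling basal current (a 100% increase), was taken from SK2 currents recorded by whole-cell patch-clamp in SK2-expressing HEK293 cells.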

`CC(=O)c1cc(N2CCOCC2)cc(NC2CCC(F)(F)CC2)n1` [IN11104-090-P1, 1-(6-((4,4-difluorocyclohexyl)amino)-4-morpholinopyridin-2-yl) ethan-1-one]: the “SC100 (μM)” value is “+ (+ means >1 uM)”.

Turning to `Cc1csc(-c2nc(NC3CCC(F)(F)CC3)cc(C(C)C#N)n2)n1` (stereo not drawn) [IN11104-094-P1, 2-(6-((4,4-difluorocyclohexyl)amino)-2-(4-methylthiazol-2-yl)pyrimidin-4-yl) propanenitrile], the “SC100 (μM)” value is “++ (++ means 200 nM-1000 nM)”.

For `Cc1nccc(-c2cc(N3CCOCC3)cc(NC3CCC(F)(F)CC3)n2)n1` [IN11104-095-P1, N-(4,4-difluorocyclohexyl)-6-(2-methylpyrimidin-4-yl)-4-morpholinopyridin-2-amine], the “SC100 (μM)” value is on record as “+ (+ means >1 uM)”.

As to `COC(C)c1cc(N(C)C2CCC(F)(F)CC2)nc(-n2ccc(C3CC3)n2)n1` (stereo not drawn) [IN11104-100-P1, 2-(3-cyclopropyl-1H-pyrazol-1-yl)-N-(4,4-difluorocyclohexyl)-6-(1-methoxyethyl)-N-methylpyrimidin-4-amine], the “SC100 (μM)” value is recorded as “+ (+ means >1 uM)”.

Regarding `COc1cc(NC2CCOCC2)nc(-c2nc(C)cs2)n1` [IN11106-004-P1], the “SC100 (μM)” value was “+ (+ means >1 uM)”.

On to `COc1cc(NC2CCCOC2)nc(-c2nc(C)cs2)n1` (stereo not drawn) [IN11106-027-P1], for which the “SC100 (μM)” value is “+ (+ means >1 uM)”.

With `COc1cc(NC2CCC3(CC2)CC3)nc(-c2nc(C)cs2)n1` [IN11106-033-P1], the “SC100 (μM)” value was “+ (+ means >1 uM)”.

Regarding `Cc1cc(NC2CCC(F)(F)CC2)nc(-n2ccc(C3CC3)n2)c1` [IN11106-062-P1, 6-(3-cyclopropyl-1H-pyrazol-1-yl)-N-(4,4-difluorocyclohexyl)-4-methylpyridin-2-amine], the “SC100 (μM)” value is “+++ (+++ means <200 nM)”.

With `CNC(=O)Oc1c(NC2CCC(F)(F)CC2)nc(-c2nc(C)cs2)nc1OC` [IN11106-065-P1, 4-((4,4-difluorocyclohexyl)amino)-6-methoxy-2-(4-methylthiazol-2-yl)pyrimidin-5-yl methylcarbamate], the “SC100 (μM)” value is “+ (+ means >1 uM)”.

As to `Cn1cnc(COc2cc(NC3CCC(F)(F)CC3)nc(-n3ccc(C4CC4)n3)n2)n1` [IN11106-066-P1], the “SC100 (μM)” value was “+ (+ means >1 uM)”.

Turning to `Cc1csc(-c2nc(C)c(F)c(NC3CCC(F)(F)CC3)n2)n1` [IN11106-077-P1, N-(4,4-difluorocyclohexyl)-5-fluoro-6-methyl-2-(4-methylthiazol-2-yl)pyrimidin-4-amine], the “SC100 (μM)” value is on record as “++ (++ means 200 nM-1000 nM)”.

Regarding `Cc1ccn(-c2nc(NC3CCC(F)(F)CC3)cc(N3CCNC(=O)C3)n2)n1` [IN11106-091-P1], the “SC100 (μM)” value is recorded as “++ (++ means 200 nM-1000 nM)”.

With `Cc1ccn(-c2nc(NC3CC(F)(F)C3)cc(N3CCOCC3)n2)n1` [IN11107-020-P1], the “SC100 (μM)” value was “+ (+ means >1 uM)”.

Take `COc1cc(NCCC(C)(F)F)nc(-c2nc(C)cs2)n1` [IN11107-021-P1]: the “SC100 (μM)” value was “+ (+ means >1 uM)”.

For `COc1cc(NCCCC(C)(F)F)nc(-c2nc(C)cs2)n1` [IN11107-023-P1], the “SC100 (μM)” value is given as “+ (+ means >1 uM)”.

Consider `COc1cc(NC2CC(F)(F)C2)nc(-n2nc(C)cc2C)n1` [IN11108-018-P1], for which the “SC100 (μM)” value was “+ (+ means >1 uM)”.

As to `Cc1cc(C)n(-c2nc(NC3CC(F)(F)C3)cc(N3CCOCC3)n2)n1` [IN11108-019-P1], the “SC100 (μM)” value is “+ (+ means >1 uM)”.

`COCc1cc(NC2CC(F)(F)C2)nc(-n2nc(C)cc2C)n1` [IN11108-038-P1, N-(3,3-difluorocyclobutyl)-2-(3,5-dimethyl-1H-pyrazol-1-yl)-6-(methoxymethyl)pyrimidin-4-amine]: the “SC100 (μM)” value is reported as “+ (+ means >1 uM)”.

For the compound `COc1cc(NC2CCC2)nc(-c2nc(C)cs2)n1` [IN11111-003-P1], the “SC100 (μM)” value was “+ (+ means >1 uM)”.

Turning to `COc1c(NC2CCC(F)(F)CC2)nc(-c2nc(C)cs2)nc1OCc1cnco1` [IN11111-021-P1], the “SC100 (μM)” value is recorded as “++ (++ means 200 nM-1000 nM)”.

For `COc1c(NC2CCC(F)(F)CC2)nc(-c2nc(C)cs2)nc1OCCO` [IN11111-023-P1], the “SC100 (μM)” value is given as “+ (+ means >1 uM)”.

On to `Cc1cccc(-c2cc(CO)cc(NC3CCC(F)(F)CC3)n2)n1` [IN11111-063-P1, (6-((4,4-difluorocyclohexyl)amino)-6′-methyl-[2,2′-bipyridin]-4-yl)methanol], for which the “SC100 (μM)” value was “+ (+ means >1 uM)”.

With `OCc1cc(NC2CCC(F)(F)CC2)nc(-n2ccc(C3CC3)n2)c1` [IN11111-092-P1], the “SC100 (μM)” value was “++ (++ means 200 nM-1000 nM)”.

With `Cc1ccn(-c2nc(NC3CCC(F)(F)CC3)cc(N3CCCOCC3)n2)n1` [IN11111-097-P1], the “SC100 (μM)” value is “++ (++ means 200 nM-1000 nM)”.

`Cc1ccn(-c2nc(NC3CCC(F)(F)CC3)c(F)c(N3CCOCC3)n2)n1` [IN11111-100-P1, N-(4,4-difluorocyclohexyl)-5-fluoro-2-(3-methyl-1H-pyrazol-1-yl)-6-morpholinopyrimidin-4-amine]: the “SC100 (μM)” value is on record as “++ (++ means 200 nM-1000 nM)”.

With `CCOc1cc(NC2CCC(F)(F)CC2)nc(-n2nc(C)cc2C)n1` [IN11121-042-P1, N-(4,4-difluorocyclohexyl)-2-(3,5-dimethyl-1H-pyrazol-1-yl)-6-ethoxypyrimidin-4-amine], the “SC100 (μM)” value is given as “+ (+ means >1 uM)”.

With `COc1c(NC2CCC(F)(F)CC2)nc(-c2nc(C)cs2)nc1N1CCOCC1` [IN11125-001-P1], the “SC100 (μM)” value is reported as “+ (+ means >1 uM)”.

With `CNC(=O)Oc1c(NC2CCC(F)(F)CC2)nc(-c2nc(C)cs2)[nH]c1=O` [IN11125-006-P1, 4-((4,4-difluorocyclohexyl)amino)-6-hydroxy-2-(4-methylthiazol-2-yl)pyrimidin-5-yl methylcarbamate], the “SC100 (μM)” value is “+ (+ means >1 uM)”.

In the case of `COc1cc(C#N)cnc1OCc1cc(NC2CCC(F)(F)CC2)nc(-n2ccc(C)n2)c1` [IN11125-008-P1], the “SC100 (μM)” value is given as “+++ (+++ means <200 nM)”.

As to `COc1nc(-c2nc(C)cs2)nc(NC2CCC(F)(F)CC2)c1OC` [IN11125-010-P1], the “SC100 (μM)” value is “++ (++ means 200 nM-1000 nM)”.

As for `COCCOCc1cc(NC2CCC(F)(F)CC2)nc(-n2ccc(C)n2)c1` [IN11125-012-P1], the “SC100 (μM)” value is listed as “++ (++ means 200 nM-1000 nM)”.

Regarding `Cc1csc(-c2nc(NC3CCC(F)(F)CC3)cc(OCc3ccon3)n2)n1` [IN11125-013-P1], the “SC100 (μM)” value is recorded as “++ (++ means 200 nM-1000 nM)”.

On to `COc1cnc(-c2nc(C)cs2)nc1NC1CCC(F)(F)CC1` [IN11125-014-P1, N-(4,4-difluorocyclohexyl)-5-methoxy-2-(4-methylthiazol-2-yl)pyrimidin-4-amine], for which the “SC100 (μM)” value is listed as “++ (++ means 200 nM-1000 nM)”.

Consider `COc1cc(NC2CCC(F)(F)C2)nc(-c2nc(C)cs2)n1` (stereo not drawn) [IN11125-028-P1], for which the “SC100 (μM)” value was “+ (+ means >1 uM)”.

For the compound `COC(=O)NCCOc1c(NC2CCC(F)(F)CC2)nc(-c2nc(C)cs2)nc1OC` [IN11125-052-P1, methyl (2-((4-((4,4-difluorocyclohexyl)amino)-6-methoxy-2-(4-methylthiazol-2-yl)pyrimidin-5-yl)oxy)ethyl)carbamate], the “SC100 (μM)” value was “+ (+ means >1 uM)”.

As to `COC(=O)NCCOc1c(NC2CCC(F)(F)CC2)nc(-c2nc(C)cs2)[nH]c1=O` [IN11125-065-P1, methyl (2-((4-((4,4-difluorocyclohexyl)amino)-6-hydroxy-2-(4-methylthiazol-2-yl)pyrimidin-5-yl)oxy)ethyl)carbamate], the “SC100 (μM)” value was “+ (+ means >1 uM)”.

On to `COc1nc(-c2nc(C)cs2)nc(NC2CCC(F)(F)CC2)c1OCc1cnco1` [IN11125-091-P1, N-(4,4-difluorocyclohexyl)-6-methoxy-2-(4-methylthiazol-2-yl)-5-(oxazol-5-ylmethoxy)pyrimidin-4-amine], for which the “SC100 (μM)” value was “+ (+ means >1 uM)”.

In the case of `Cc1csc(-c2ncc(O)c(NC3CCC(F)(F)CC3)n2)n1` [IN11125-095-P1, 4-((4,4-difluorocyclohexyl)amino)-2-(4-methylthiazol-2-yl)pyrimidin-5-ol], the “SC100 (μM)” value is reported as “+ (+ means >1 uM)”.

As for `Cc1ccn(-c2cc3c(c(N4CCOCC4)n2)CCN3)n1` [IN11130-005-P1, 4-(6-(3-methyl-1H-pyrazol-1-yl)-2,3-dihydro-1H-pyrrolo[3,2-c]pyridin-4-yl)morpholine], the “SC100 (μM)” value was “+ (+ means >1 uM)”.

In the case of `Cc1cccc(-c2nccc(NC3CCC(F)(F)CC3)n2)n1` [IN11130-030-P1, N-(4,4-difluorocyclohexyl)-2-(6-methylpyridin-2-yl)pyrimidin-4-amine], the “SC100 (μM)” value was “+ (+ means >1 uM)”.

`Cc1cccc(-c2nc(NC3CCC(F)(F)CC3)cc(OCc3cnco3)n2)n1` [IN11130-031-P2, N-(4,4-difluorocyclohexyl)-2-(6-methylpyridin-2-yl)-6-(oxazol-5-ylmethoxy)pyrimidin-4-amine]: the “SC100 (μM)” value is on record as “+ (+ means >1 uM)”.

Take `COC(=O)NCc1cc(NC2CCC(F)(F)CC2)nc(-c2nc(C)cs2)c1` [IN11130-047-P1]: the “SC100 (μM)” value is “+++ (+++ means <200 nM)”.

For `Cc1csc(-c2cc(C(C)O)cc(NC3CCC(F)(F)CC3)n2)n1` (stereo not drawn) [IN11130-051-P1, 1-(2-((4,4-difluorocyclohexyl)amino)-6-(4-methylthiazol-2-yl)pyridin-4-yl) ethan-1-ol], the “SC100 (μM)” value is “+++ (+++ means <200 nM)”.

In the case of `CC(=O)c1cc(NC2CCC(F)(F)CC2)nc(-c2nc(C)cs2)c1` [IN11130-053-P1, 1-(2-((4,4-difluorocyclohexyl)amino)-6-(4-methylthiazol-2-yl)pyridin-4-yl) ethan-1-one], the “SC100 (μM)” value was “+++ (+++ means <200 nM)”.

`Cc1csc(-c2ncc(C)c(NC3CCC(F)(F)CC3)n2)n1` [IN11130-076-P1, N-(4,4-difluorocyclohexyl)-5-methyl-2-(4-methylthiazol-2-yl)pyrimidin-4-amine]: the “SC100 (μM)” value was “+ (+ means >1 uM)”.
